According to patent publication US7947280B2 (priority 2003, dated 2011):
“Also recorded” adds a separate entry of the source.

Tests used:
[1] = tested on: mice given angiotensin II and isoproterenol infusions; assay: Neurohormonal cardiomyopathy model, echocardiography; format: in vivo, mouse; conditions: wild type mice
Method: Echocardiography. Two dimensional and M mode echocardiography was carried out using thea GE Vivid ultrasound platform with the small animal probe (13 MHz). […] After shaving of the anterior chest, mice were warmed using a heat lamp. Short axis views of the left ventricle were captured at the level of the papillary muscles in 2D and M modes. Analysis was carried out offline and fractional shortening calculated as [LVEDD−LVESD]/LVEDD where LVEDD is left ventricular end diastolic diameter (measured at the tip of the mitral valve leaflets) and LVESD is left ventricular end systolic diameter.
Neurohormonal cardiomyopathy model. […] All mice were age 12-14 weeks.

[2] = tested on: mice with experimentally induced heart failure; conditions: Pyr-apelin-13 2 mg/kg/day; between weeks 1 and 3; n=6
Method: Left anterior decending artery ligation. Animals were anesthetized with 2-3% inhalational isofluorane and 50 mg/kg sodium pentobarbital intraperitoneally. […] The animals were placed in the left lateral decubitus position and a thoracotomy performed at the 4th intercostal space. Peak inspiratory pressures were monitored and maintained between 10-14 cm of water. The lung was retracted and the pericardium incised. The left coronary artery was ligated with a 7-0 prolene suture until blanching of the distal left ventricle was noted. Heart rate and temperature were monitored during the procedure. After ascertaining complete hemostasis, the chest wall was closed in four layers. The animals were weaned from the ventilator and anesthetic and then extubated and monitored in the recovery area.
Treadmill exercise. […] In mice, a commonly used commercially available setup (Columbus Instruments) employs a moving belt encased in a sealed Plexiglas enclosure, allowing for measurement of oxygen consumption and carbon dioxide production. Stimulus devices consist of a metal shock grid. Metabolic measurements are performed using an open circuit volumetric gas analysis system (Oxymax System; Columbus Instruments). The low dead space of this circuit allows quick gas equilibration with a t1/2 of 30 s, which is highly suitable for use during graded exercise protocols. […]

ApoE-KO mice = assay: AngII induced abdominal aortic aneurysm formation model; format: in vivo, mouse
Method: Animals. Mice were maintained in temperature-controlled (20° C. to 22° C.) environment with a 12-hour light-dark cycle. Sterile water and standard chow diet were available ad libitum. All mice were C57BL/6J ApoE-KO male mice (Jackson Laboratories, Bar Harbor, […].) between the ages of 8-12 weeks. […] Animal procedures were carried out in accordance with the Institutional Review Board Guidelines at Stanford University.
Abdominal aortic aneurysm formation, sudden death and vein graft procedure. […] Abdominal aortic aneurysm was defined as ≧50% enlargement of the maximal abdominal aorta diameter. Mice that were found dead without any preceding signs of suffering were defined as sudden death.

[3] = tested on: NFκB, NFAT, AP-1 and SRE reporter constructs; assay: Luciferase reporter assays of AngII nuclear signaling in HEK-293 cells; format: cell-based
Source text: cDNA Constructs APJ expression construct was purchased from cDNA.org. AT1R construct was obtained from Dr. Marc Caron. AT1R transcript was inserted into a pEGFP-N1 vector (Clonetech). The NF-kB and SRE luciferase reporter constructs were obtained from BD Biosciences.
(§1) Cells were immediately lysed.

[4] = tested on: AT1R and APJ heterodimerization; assay: AT1R-APJ receptor heterodimerization by immunoprecipitation; format: cell-based; conditions: addition of apelin
Method: as §1
Immunoprecipitation and Western Blotting Immunoprecipitation was performed as previously described (REF). In brief, cells were lysed using 10× Cell Lysis Buffer (Cell Signaling Technologies CITY). Lysates were precleared with protein G and immunoprecipitation was performed with the respective antibodies at concentration of 1 mg/mL for 24 hrs at 4C. Protein G agarose was added and incubated for additional 2 hours. Western blotting on SDS-PAGE gels were performed as previously described, and the bands were visualized using the enhanced chemiluminescence system (Amersham Biosciences).

rats = conditions: intravenous bolus injection in rats; Tatemoto et al., Lee et al.; cited from earlier work
[5] = tested on: superoxide production in aortic sections; assay: Dihydroethidium oxidative fluorescence microtopography; format: in vivo, mouse
Method: Oxidative fluorescent microtopography. Superoxide was detected in the layers of the vessel wall using fluorescent probe dihydroethidium as described previously. Fresh segments of upper descending thoracic aorta were frozen in OCT compound. […] Molecular Probes). Images were obtained on a confocal microscope (Bio-Rad MRC-1024 laser; filter settings: excitation filter 488 nm; emission filter 550 nm). 2-hydroxyethidium fluorescence was measured from high power (60× mag) images. Endothelium by quantifying fluorescence (intensity×area) on the luminal side of the internal elastic lamina, media between the internal and external elastic lamina, and adventitia outside the external elastic lamina. Quantification was performed using Image Pro Plus software (Media Cybernetics, Silver Springs, Md.). Medial Analysis was performed blind to the samples identity.

[6] = tested on: Erk1/2 phosphorylation in RASM; conditions: AngII stimulated RASM
eNOS protein = conditions: experimental groups incl. apelin treated animals
Method: Immunoblotting. Lung homogenate (n≧3 per group) were homogenized on ice for 20 seconds in lysis buffer (50 mmol/L Tris, pH 7.5, 150 mmol/L NaCl, 0.1% SDS, 0.5% deoxycholate, 1% Nonidet P-40) containing protease inhibitors (Complete; Boehringer Mannheim) and 1 mmol/L phenylmethylsulfonyl fluoride. Protein lysates (8 μg) were resolved using SDS-PAGE and transferred to polyvinylidene difluoride membranes. Membranes were incubated with a 1:2000 dilution of mouse anti-eNOS monoclonal antibody (Cell Signaling, Location), followed by a 1:2500 dilution of rabbit anti-mouse horseradish peroxidase-conjugated secondary antibody (Promega). Protein bands were visualized by chemiluminescence.

Substance: apelin
- heart failure phenotype ([1]; apelin infused concomitantly with angiotensin II and isoproterenol): completely abrogated; also recorded: abrogated completely; also recorded: ameliorates the heart failure phenotype completely
- fractional shortening (post) ([1]; pyr-apelin-13 2 mg/kg/day with angiotensin II and isoproterenol, 7 day minipumps): 42.6±1.3%
- average time to exhaustion / exercise capacity [2]: marked, statistically significant increase
- animals with aneurysm formation (ApoE-KO mice; AngII plus apelin treatment): 1/12
- incidence of AAA formation (ApoE-KO mice; apelin added to AngII infused mice): 8%
- incidence of AAA formation within 4 weeks (ApoE-KO mice; single agent infusion): did not observe AAA formation
- NFκB reporter activation stimulated by TNF-α and H2O2 ([3]; apelin treatment): In neither case did apelin diminish transcription; also recorded: not affected
- AngII induced increase in reporter transcription ([3]; cells also treated with apelin): abrogated; also recorded: decreased activation
- AngII induced receptor heterodimerization [4]: did not affect
- mean arterial pressure (rats): decrease
- aortic superoxide production vs AngII alone ([5]; apelin added to AngII treated mice): significantly reduced
- Total aortic fluorescence, lower than saline treated controls ([5]; apelin treated mice): 3 fold
- Erk1/2 phosphorylation [6]: decreased
- eNOS protein levels in aortas (eNOS protein): no difference
